Test results from US20080249103A1, “Sirtuin polymorphisms and methods of use thereof” (Sirtris Pharmaceuticals, Inc., priority 2006, published 2008).
Read-outs that look alike come from different tables or passages of the source.

Experiments:
[1] = system: diet induced obese (DIO) mouse; test: Diet Induced Obesity (DIO) mouse model; type: in vivo, C57BL/6 mice; conditions: for plasma insulin: SRT1933 100 mg/kg, rosiglitazone 5 mg/kg once daily oral
Procedure: The vehicle used was 2% HPMC −0.2% DOSS. Individual mouse body weights were measured twice weekly. Every 2 weeks throughout the study, mice from each group were bled via the tail vein for determination of blood glucose and blood plasma insulin. After 1, 3 and 5 weeks of dosing, a fasted blood glucose measure was taken and after 5 weeks of treatment an IPGTT was conducted on all mice from each of the groups. After 9 weeks of treatment, an ITT was conducted and a rectal body temperature was taken on all mice from each of the groups. Statistical analysis was completed using the JMP program (Version 6). Data were analyzed by a one way ANOVA with comparison to control using a Dunnett's Test. A p value <0.05 indicated a significant difference between groups.

[2] = system: diet induced obese (DIO) mouse; test: Diet Induced Obesity (DIO) mouse model; type: in vivo, C57BL/6 mice; conditions: DIO mice
[3] = Plasma exposure after oral gavage in mice; type: in vivo, C57BL/6 mice; conditions: 100 mg/kg once daily by oral gavage, each day
Procedure: The following example describes the in vivo effects of a novel SIRT1 activator. The compound was administered via oral gavage at the doses indicated in FIG. 2a in […] male mice, 18-22 grams (Wilmington, Mass. Charles River Labs), 3 mice per group and blood plasma was collected at 5, 30, 120 and 360 minute time points. The compound was administered in 2% HPMC+0.2% DOSS. Mice were sacrificed at proper time points using CO2 overdose (place in CO2 chamber 40 seconds before time point). Blood was collected in microtainer blood tubes with Lithium Heparin and plasma separator and frozen plasma was sent to Charles River Labs (CRL) for analysis. To determine oral bioavalability, the compound was administered into the tail vein at 0.1, 0.3 and 1.0 mg/kg doses in C57BL/6 male mice, 18-22 grams (Wilmington, Mass. Charles River Labs), 3 mice per group and blood plasma was collected at 5, 30, 120 and 360 minute time points. Compounds were administered in 10% ethanol/ 40% Polyethylene glycol/50% H2O for IV studies. Mice were sacrificed at proper time points using CO2 overdose (place in CO2 chamber 40 seconds before time point). Blood was collected and analyzed as described above.

Human SIRT1 = target: T1, Human SIRT1 (Homo sapiens, UniProt Q96EB6); test: SIRT1 mass spectrometry deacetylase assay; type: biochemical
T1 construct: hexa-histidine (N); made in house; host or cells: E. coli BL21(DE3)Star
T1 sequence (Q96EB6 1-747): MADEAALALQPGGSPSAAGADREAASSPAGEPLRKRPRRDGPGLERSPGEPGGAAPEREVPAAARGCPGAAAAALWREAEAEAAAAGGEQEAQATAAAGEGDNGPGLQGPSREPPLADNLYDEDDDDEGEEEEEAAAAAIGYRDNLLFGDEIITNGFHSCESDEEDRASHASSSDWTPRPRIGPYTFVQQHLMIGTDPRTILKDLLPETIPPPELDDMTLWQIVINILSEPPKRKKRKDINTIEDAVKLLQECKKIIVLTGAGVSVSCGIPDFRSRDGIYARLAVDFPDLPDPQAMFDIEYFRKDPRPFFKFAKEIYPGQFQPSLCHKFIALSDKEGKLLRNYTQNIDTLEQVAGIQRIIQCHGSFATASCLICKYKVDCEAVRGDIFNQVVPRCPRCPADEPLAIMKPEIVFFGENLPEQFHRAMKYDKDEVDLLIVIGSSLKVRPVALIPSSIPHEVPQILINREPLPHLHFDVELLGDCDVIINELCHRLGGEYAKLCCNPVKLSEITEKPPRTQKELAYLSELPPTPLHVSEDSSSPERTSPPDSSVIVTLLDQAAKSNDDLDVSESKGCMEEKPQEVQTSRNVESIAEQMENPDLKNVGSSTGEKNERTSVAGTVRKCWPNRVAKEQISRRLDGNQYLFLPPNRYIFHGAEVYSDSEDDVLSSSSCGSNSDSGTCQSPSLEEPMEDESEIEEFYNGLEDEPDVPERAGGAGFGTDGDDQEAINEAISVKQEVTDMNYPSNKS
Description: The following example describes methods for the identification and characterization of Sirt1 activators. Human SIRT1 is expressed from the pSIRT1FL vector which places expression under the control of the T7 promoter. The protein was expressed in E. coli BL21(DE3)Star as an N-terminal fusion to a hexa-histidine affinity tag. The expressed protein was purified by Ni^2+-chelate chromatography. The eluted protein was then purified by size exclusion chromatography followed by ion exchange. The resulting protein was typically >95% pure as assessed by SDS-PAGE analysis. The mass spectrometry based assay utilizes a peptide having 20 amino acid residues as follows: Ac-Glu-Glu-Lys(Biotin)-[…]Ac)-Nle-Ser-Thr-Glu-Gly-Lys(5TMR)-Glu-Glu-NH2 (SEQ ID NO:2) wherein K(Ac) is an acetylated lysine residue and Nle is a norleucine. The peptide is labeled with the fluorophore 5TMR (excitation 540 nm/emission 580 nm) at the C-terminus for use in the FP assay described above. The sequence of the peptide substrate is based on p53 with several modifications.
The mass spectrometry assay was conducted as follows: 0.5 μM peptide substrate and 120 μM βNAD^+ was incubated with 10 nM SIRT1 for 25 minutes at 25° C. in a reaction buffer (50 mM Tris-acetate pH 8, 137 mM NaCl, 2.7 mM KCl, 1 mM MgCl2, 5 mM DTT, 0.05% BSA). Test compounds were added to the reaction or vehicle control, DMSO. After the incubation with SIRT1, 10% formic acid was added to stop the reaction. Determination of the mass of the substrate peptide allows for precise determination of the degree of acetylation (i.e. starting material) as compared to deacetylated peptide (product).
The activity of an exemplary compound against SIRT1 enzyme was profiled using a mass spectrometry readout. In this assay the conversion of acetylated peptide substrate to deacetylated peptide product is tracked by monitoring the change in mass ([…]) upon loss of the acetyl group. […]

[4] = system: citrate synthase activity (mitochondrial capacity); test: Citrate synthase activity in tissues of treated DIO mice; type: in vivo, C57BL/6 mice
Procedure: Citrate synthase (CS) activity in skeletal muscle (gastrocnemius) and white adipose tissue (epididymal) was determined after 11 weeks of treatment using the method described by Srere (Citrate synthase, Methods Enzymol. 1969, 13: 3-5) and Moyes et al. (Moyes CD, Mathieu-Costello 0A, Tsuchiya N, Filbum C, and Hansford RG. Mitochondrial biogenesis during cellular differentiation. Am. J. Physiol. 1997, 272 (Cell Physiol. 41): C1345-C1351.
Citrate Synthase is an enzyme of the Krebs cycle (also called […], TCA, or citric acid) cycle whose maximal activity (capacity) reflects mitochondrial oxidative capacity of the sample (Holloszy et al. 1970, Williams et al. 1986, Hood et al. 1989). […] Irrespective of this latter remark, changes in citrate synthase activity over time in a given individual reflect changes in tissue mitochondrial oxidative capacity. The five mice best representing the mean fasting blood glucose level of each group (DIO Vehicle and DIO SRT1933) were selected for this analysis. The tissues were lyzed in lx Extraction Buffer (20 mM N-2-hydroxyethylpiperazine-N′-2-2ethanesulfonic acid (HEPES), pH 7.2, 0.1% Triton X-100 and 1 mM EDTA with a polytron tissue homogenizer (OMNI International GLH) for 30 seconds at maximum speed (setting 6) on ice. A low-speed (13,000 rpm, microfuge) centrifugation step was then used to pellet big cell debris. The supernatant was used to assess citrate synthase activity. The samples are freeze-thawed 2 times to break the mitochondrial membrane and allow access to citrate synthase. Sample protein concentrations were determined according to the supplier's instructions, with Bio-Rad Protein Assay Dye Reagent Concentrate (cat#500-0006, […]) with Protein Standard I, bovine gamma globulin (cat#500-0005, […]) as standard. The citrate synthase activity assay was performed in a final total volume of 300 μl with 100 μg of protein per sample, measured in triplicate.
Citrate synthase catalyzes the reaction between acetyl coenzyme A (acetyl CoA) and oxaloacetic acid (OAA) to form citric acid. […]

Compound | nonfasting blood glucose levels ([1]; DIO mice, 100 mg/kg once daily oral, by week 2, maintained over 10 week period) | insulin sensitivity relative to vehicle assessed by ITT ([1]; DIO mice, ITT after 9 weeks of treatment) | fasting blood glucose levels ([1]; DIO mice, once daily oral dosing) | plasma insulin ([1]; DIO mice) [ng/mL] | body temperature ([1]; SRT1933 treated groups (FIG. 2f)) | lowering of core body temperature ([1]; both DIO mice and normal chow fed mice) [°C] | effect on insulin levels ([1]; mice fed a normal chow diet, over the course of the study) | glucose tolerance in an OGTT relative to vehicle [2] | glucose excursion in OGTT (AUC) ([2]; after 5 weeks of treatment, SRT1933 100 mg/kg, rosiglitazone 5 mg/kg once daily oral) [mg·h/dL] | duration of exposure above EC1.5 [3] | Emax (Human SIRT1; at the highest doses of compound tested, read-out: maximum activation) [%] | EC1.5 (Human SIRT1; read-out: EC1.5 (concentration of compound required to increase enzyme activity by 50%), mass spectrometry readout, 10 nM SIRT1, 0.5 μM peptide substrate, 120 μM βNAD+) [nM] | EC1.5 (Human SIRT1; read-out: EC1.5, as quoted in legend of FIG. 2a) [nM] | increase in citrate synthase activity ([4]; gastrocnemius muscle, DIO mice, after 11 weeks of treatment) [%] | citrate synthase activity in adipose tissue ([4]; n=5, after 11 weeks (FIG. 2g)) | mitochondrial capacity (citrate synthase activity) in skeletal muscle ([4]; n=5, after 11 weeks (FIG. 2g))
O=C(Nc1ccccc1-c1cn2c(CN3CCNCC3)csc2n1)c1cnc2ccccc2n1 [SRT1933] | normalized | improvement in insulin sensitivity | normalized | 2.1 ± 0.1 | decreased | ~1 | did not have a significant effect | improved glucose tolerance | 462 ± 25 | at least 16 hours | > 900 | 160 | 440 | 15 | trend | significant increase
CN(CCOc1ccc(CC2SC(=O)NC2=O)cc1)c1ccccn1 (centres unmarked) [rosiglitazone, reference compound] |  |  |  | 0.9 ± 0.1 |  |  |  |  |  |  |  |  |  |  |  | 
